Assay results reported in PubChem BioAssay AID330 (DTP/NCI, 2004).
Values joined by “and” are separate entries in the source; they are usually repeats but may differ in a detail not shown here. Identical values can stand only once. Toxic doses and inconclusive results are not listed.

System: P388 leukemia ip, CD2F1 mice, survival T/C
Assay: NCI In Vivo Anticancer Drug Screen. Data for tumor model P388 Leukemia (intraperitoneal) in CD2F1 (CDF1) mice
Details: endpoint: median survival time, higher = longer survival
Method in brief: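 Mice carrying the transplanted tumor received test compound or vehicle. Survival was recorded in each group, and the value is the treated-group measurement divided by that of the vehicle-treated control group.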

[1] = dose: 100.0 mg/kg/injection, schedule: Q04DX003 (ip), vehicle: saline with Tween-80
[2] = dose: 200.0 mg/kg/injection, schedule: Q04DX003 (ip), vehicle: saline with Tween-80
[3] = dose: 400.0 mg/kg/injection, schedule: Q04DX003 (ip), vehicle: saline with Tween-80
[4] = dose: 60.0 mg/kg/injection, schedule: Q01DX005 (ip), vehicle: Klucel (hydroxypropylcellulose) (HPC)
[5] = dose: 120.0 mg/kg/injection, schedule: Q01DX005 (ip), vehicle: Klucel (hydroxypropylcellulose) (HPC)
[6] = dose: 240.0 mg/kg/injection, schedule: Q01DX005 (ip), vehicle: Klucel (hydroxypropylcellulose) (HPC)
[7] = dose: 50.0 mg/kg/injection, schedule: Q01DX005 (ip), vehicle: saline with Tween-80
[8] = dose: 100.0 mg/kg/injection, schedule: Q01DX005 (ip), vehicle: saline with Tween-80
[9] = dose: 200.0 mg/kg/injection, schedule: Q01DX005 (ip), vehicle: saline with Tween-80
[10] = dose: 50.0 mg/kg/injection, schedule: Q01DX005 (ip), vehicle: Klucel (hydroxypropylcellulose) (HPC)
[11] = dose: 100.0 mg/kg/injection, schedule: Q01DX005 (ip), vehicle: Klucel (hydroxypropylcellulose) (HPC)
[12] = dose: 50.0 mg/kg/injection, schedule: Q01DX009 (ip), vehicle: saline with Tween-80
[13] = dose: 100.0 mg/kg/injection, schedule: Q01DX009 (ip), vehicle: saline with Tween-80
[14] = dose: 60.0 mg/kg/injection, schedule: Q01DX005 (ip), vehicle: saline with Tween-80
[15] = dose: 120.0 mg/kg/injection, schedule: Q01DX005 (ip), vehicle: saline with Tween-80
[16] = dose: 240.0 mg/kg/injection, schedule: Q01DX005 (ip), vehicle: saline with Tween-80
[17] = dose: 100.0 mg/kg/injection, schedule: Q01DX001 (ip), vehicle: saline with Tween-80
[18] = dose: 200.0 mg/kg/injection, schedule: Q01DX001 (ip), vehicle: saline with Tween-80
[19] = dose: 400.0 mg/kg/injection, schedule: Q01DX001 (ip), vehicle: saline with Tween-80
[20] = dose: 200.0 mg/kg/injection, schedule: Q01DX005 (ip), vehicle: Klucel (hydroxypropylcellulose) (HPC)
[21] = dose: 100.0 mg/kg/injection, schedule: Q04DX003 (ip), vehicle: saline
[22] = dose: 200.0 mg/kg/injection, schedule: Q04DX003 (ip), vehicle: saline

COc1cc(/C=N\Nc2ccccc2[N+](=O)[O-])cc(OC)c1OC
T/C [1]: 87 % of control
T/C [2]: 87 % of control
T/C [3]: 91 % of control

CCCCCCCCCC[N+](C)(C)CCO
T/C (dose: 12.5 mg/kg/injection, schedule: Q01DX009 (ip), vehicle: saline): 118 % of control
T/C (dose: 25.0 mg/kg/injection, schedule: Q01DX009 (ip), vehicle: saline): 109 % of control
T/C (dose: 50.0 mg/kg/injection, schedule: Q01DX009 (ip), vehicle: saline): 116 % of control

CCOC(=O)c1cnc2cc3c(cc2c1Nc1cccc(C(F)(F)F)c1)OCO3
T/C [4]: 96 % of control
T/C [5]: 102 % of control
T/C [6]: 101 % of control

O=S(=O)(/C=C/c1ccc(F)cc1)Cc1ccccc1
T/C [7]: 92 % of control
T/C [8]: 92 % of control
T/C [9]: 90 % of control

CCCCC1SC2=NCCN2C1(O)c1ccc(Cl)cc1 (centres undefined)
T/C [10]: 113 % of control
T/C [11]: 109 % of control

CCOC(=O)c1ccc2ccc(OC)c(OC)c2c1
T/C (dose: 12.5 mg/kg/injection, schedule: Q01DX009 (ip), vehicle: other): 95 % of control
T/C (dose: 25.0 mg/kg/injection, schedule: Q01DX009 (ip), vehicle: other): 97 % of control
T/C (dose: 50.0 mg/kg/injection, schedule: Q01DX009 (ip), vehicle: other): 104 % of control
T/C (dose: 100.0 mg/kg/injection, schedule: Q01DX009 (ip), vehicle: other): 95 % of control
T/C (dose: 200.0 mg/kg/injection, schedule: Q01DX009 (ip), vehicle: other): 104 % of control

C[C](C)(C)[Sn]([Cl])([c]1ccccc1)[C](C)(C)C
T/C [1]: 94 % of control
T/C [2]: 104 % of control
T/C [3]: 95 % of control

COC(c1ccccc1)C1(O)CCN(C)CC1 (centres undefined)
T/C (dose: 72.0 mg/kg/injection, schedule: Q04DX002 (ip), vehicle: Klucel (hydroxypropylcellulose) (HPC)): 98 % of control
T/C (dose: 144.0 mg/kg/injection, schedule: Q04DX002 (ip), vehicle: Klucel (hydroxypropylcellulose) (HPC)): 97 % of control
T/C (dose: 288.0 mg/kg/injection, schedule: Q04DX002 (ip), vehicle: Klucel (hydroxypropylcellulose) (HPC)): 98 % of control

O=C1CSC(C2CC=CCC2)N1c1nncs1 (centres undefined)
T/C [7]: 100 % of control
T/C [8]: 91 % of control
T/C [9]: 90 % of control

Cc1[nH]c(=O)[nH]c(=O)c1C(=O)O
T/C [12]: 100 % of control
T/C [13]: 105 % of control
T/C (dose: 200.0 mg/kg/injection, schedule: Q01DX009 (ip), vehicle: saline with Tween-80): 99 % of control

COC(=O)C12OCC34C(CC5C(C)=CC(=O)C(O)C5(C)C3C(O)C1O)OC(=O)C(OC(=O)CC(C)C)C24 (centres undefined)
T/C (dose: 0.25 mg/kg/injection, schedule: Q01DX009 (ip), vehicle: saline + alcohol): 124 % of control
T/C (dose: 0.5 mg/kg/injection, schedule: Q01DX009 (ip), vehicle: saline + alcohol): 122 % of control
T/C (dose: 2.0 mg/kg/injection, schedule: Q01DX009 (ip), vehicle: saline + alcohol): 163 % of control

O=C(O)c1cccc2cccc(-c3c4ccc(=O)cc-4oc4cc(O)ccc34)c12
T/C [14]: 101 % of control
T/C [15]: 100 % of control
T/C [16]: 98 % of control

CCC(C)C1NC(=O)C(NC(=O)c2c3nc4c(C(=O)NC5C(=O)NC(C(C)CC)C(=O)N6CCCC6C(=O)N(C)CC(=O)N(C)C(C(C)C)C(=O)OC5C)cc(N)c(C)c4oc-3c(C)c(=O)c2N)C(C)OC(=O)C(C(C)C)N(C)C(=O)CN(C)C(=O)C2CCCN2C1=O (centres undefined)
T/C (dose: 0.1 mg/kg/injection, schedule: Q01DX009 (ip), vehicle: Klucel (hydroxypropylcellulose) (HPC)): 247 % of control
T/C (dose: 0.2 mg/kg/injection, schedule: Q01DX009 (ip), vehicle: Klucel (hydroxypropylcellulose) (HPC)): 230 % of control
T/C (dose: 100.0 micrograms/kg/injection, schedule: Q01DX009 (ip), vehicle: water): 152 % of control
T/C (dose: 150.0 micrograms/kg/injection, schedule: Q01DX009 (ip), vehicle: water): 166 % of control
T/C (dose: 225.0 micrograms/kg/injection, schedule: Q01DX009 (ip), vehicle: water): 177 % of control

CC1(C)CO[Se](=O)OC1
T/C (dose: 3.13 mg/kg/injection, schedule: Q01DX009 (ip), vehicle: saline): 114 % of control

O=NN(CCCl)C(=O)N(CCCl)C(=O)Oc1c(Cl)cc(Cl)cc1Cl
T/C (dose: 25.0 mg/kg/injection, schedule: Q01DX001 (ip), vehicle: saline with Tween-80): 122 % of control
T/C [17]: 150 % of control
T/C [18]: 179 % of control and 193 % of control
T/C [19]: 199 % of control

Cc1cccc(/C=N/NC(N)=S)n1
T/C (dose: 15.0 mg/kg/injection, schedule: Q04DX002 (ip), vehicle: saline with Tween-80): 105 % of control
T/C (dose: 30.0 mg/kg/injection, schedule: Q04DX002 (ip), vehicle: saline with Tween-80): 106 % of control
T/C (dose: 60.0 mg/kg/injection, schedule: Q04DX002 (ip), vehicle: saline with Tween-80): 106 % of control

Cc1ccc(S(=O)(=O)NC(=O)NC(=S)c2ccco2)cc1
T/C [17]: 101 % of control
T/C [18]: 97 % of control
T/C [19]: 102 % of control

CC(=O)OC1C(C)OC(OC(=O)C2CCC3C(C2)OC2(CC(OC(=O)/C=C/c4ccccc4)C(C)CO2)C32CO2)C(OC2OC(C)C(O)C(O)C2O)C1O (centres undefined)
T/C (dose: 2.5 mg/kg/injection, schedule: Q01DX005 (ip), vehicle: saline + alcohol): 96 % of control
T/C (dose: 5.0 mg/kg/injection, schedule: Q01DX005 (ip), vehicle: saline + alcohol): 102 % of control and 107 % of control
T/C (dose: 10.0 mg/kg/injection, schedule: Q01DX005 (ip), vehicle: saline + alcohol): 112 % of control

O/N=C/C(=Nc1ccc2ccccc2c1)NO
T/C [4]: 102 % of control
T/C [5]: 98 % of control
T/C [6]: 98 % of control

CCO/C=N/n1c(C(=O)NCCCOC)nc2ccccc2c1=O
T/C [10]: 107 % of control
T/C [11]: 94 % of control
T/C [20]: 100 % of control

COc1nc(NC(C)C)nc(NC(C)C)n1
T/C (dose: 50.0 mg/kg/injection, schedule: Q04DX003 (ip), vehicle: saline with Tween-80): 87 % of control
T/C [1]: 95 % of control
T/C [2]: 104 % of control

O=C(O)c1cc2c(Cl)cccc2[nH]1
T/C (dose: 25.0 mg/kg/injection, schedule: Q01DX009 (ip), vehicle: saline with Tween-80): 90 % of control
T/C [12]: 90 % of control
T/C [13]: 90 % of control

CN(C)c1ccc2nc3c(cc(Nc4cccc5cccc(Nc6cc7ccccc7c7nc8ccc(N(C)C)cc8[o+]c67)c45)c4ccccc43)[o+]c2c1
T/C [14]: 90 % of control
T/C [15]: 100 % of control
T/C [16]: 91 % of control

CC1=CC=C(C(=O)C(Br)C(Br)c2ccccc2)C1 (centres undefined)
T/C (dose: 6.25 mg/kg/injection, schedule: Q01DX009 (ip), vehicle: Klucel (hydroxypropylcellulose) (HPC)): 92 % of control
T/C (dose: 12.5 mg/kg/injection, schedule: Q01DX009 (ip), vehicle: Klucel (hydroxypropylcellulose) (HPC)): 92 % of control
T/C (dose: 25.0 mg/kg/injection, schedule: Q01DX009 (ip), vehicle: Klucel (hydroxypropylcellulose) (HPC)): 89 % of control

CCOC(=O)C1=C(C)NC(=O)NC1c1cccc(OC)c1O (centres undefined)
T/C [10]: 94 % of control
T/C [11]: 91 % of control
T/C [20]: 97 % of control

O=C1C=CC(=O)N1Cc1ccco1
T/C [21]: 90 % of control
T/C [22]: 95 % of control
T/C (dose: 400.0 mg/kg/injection, schedule: Q04DX003 (ip), vehicle: saline): 95 % of control

S=C(S)N1CCOCC1
T/C (dose: 50.0 mg/kg/injection, schedule: Q04DX003 (ip), vehicle: saline): 100 % of control
T/C [21]: 100 % of control
T/C [22]: 100 % of control

CCN(CC)C(C)=S
T/C [14]: 103 % of control
T/C [15]: 110 % of control
T/C [16]: 104 % of control

CC1CC=CCC1C1OC(C)C(C)O1 (centres undefined)
T/C [7]: 110 % of control
T/C [8]: 106 % of control
T/C [9]: 109 % of control
